Consider four compounds from ChEMBL document CHEMBL4376804, “Review of Transient Receptor Potential Canonical (TRPC5) Channel Modulators and Diseases” (J Med Chem, 2019).

Structures are written as SMILES.

Data set [1] has as its target T1, Short transient receptor potential channel 4 (Mus musculus, UniProt Q9QUQ5).
T1 sequence (Q9QUQ5 whole entry): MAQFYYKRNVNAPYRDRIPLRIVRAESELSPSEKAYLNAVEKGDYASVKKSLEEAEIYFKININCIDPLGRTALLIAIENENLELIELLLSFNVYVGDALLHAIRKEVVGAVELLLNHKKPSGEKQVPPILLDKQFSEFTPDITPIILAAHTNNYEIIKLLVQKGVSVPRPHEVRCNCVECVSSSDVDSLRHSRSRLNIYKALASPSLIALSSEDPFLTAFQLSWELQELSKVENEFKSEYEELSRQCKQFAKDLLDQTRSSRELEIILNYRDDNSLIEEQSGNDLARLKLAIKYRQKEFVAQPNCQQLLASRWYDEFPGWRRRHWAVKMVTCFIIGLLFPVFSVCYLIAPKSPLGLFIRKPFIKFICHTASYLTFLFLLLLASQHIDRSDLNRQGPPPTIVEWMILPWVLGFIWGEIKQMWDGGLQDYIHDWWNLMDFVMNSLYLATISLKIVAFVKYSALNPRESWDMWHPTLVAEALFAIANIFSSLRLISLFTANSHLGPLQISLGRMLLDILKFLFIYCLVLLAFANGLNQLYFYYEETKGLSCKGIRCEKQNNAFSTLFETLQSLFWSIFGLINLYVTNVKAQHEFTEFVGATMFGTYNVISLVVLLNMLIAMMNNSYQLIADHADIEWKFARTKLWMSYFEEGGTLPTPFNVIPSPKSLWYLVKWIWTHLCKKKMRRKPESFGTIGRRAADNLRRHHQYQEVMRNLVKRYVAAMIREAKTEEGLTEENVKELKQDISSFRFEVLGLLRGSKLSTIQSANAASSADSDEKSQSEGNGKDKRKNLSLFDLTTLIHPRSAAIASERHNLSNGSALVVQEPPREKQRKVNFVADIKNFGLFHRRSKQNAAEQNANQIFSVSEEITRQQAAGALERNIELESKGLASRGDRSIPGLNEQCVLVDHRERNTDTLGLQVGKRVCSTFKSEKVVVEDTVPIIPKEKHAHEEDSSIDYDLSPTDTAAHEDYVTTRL
Kind of data set: Inhibition of mouse TRPC4 beta expressed in HEK293 cells co-expressing mu-opioid receptor assessed as reduction in DAMGO-induced intracellular calcium level in presence of mu-opioid receptor agonist DAMGO by Fluo-4AM dye based fluorescence assay. The data set is classed as cell-based. For orientation: Calcium flux is commonly read through the fluorescence of an indicator in the cells.

In data set [2] the target is T2, Short transient receptor potential channel 6 (Mus musculus, UniProt Q61143).
T2 sequence (Q61143 whole entry): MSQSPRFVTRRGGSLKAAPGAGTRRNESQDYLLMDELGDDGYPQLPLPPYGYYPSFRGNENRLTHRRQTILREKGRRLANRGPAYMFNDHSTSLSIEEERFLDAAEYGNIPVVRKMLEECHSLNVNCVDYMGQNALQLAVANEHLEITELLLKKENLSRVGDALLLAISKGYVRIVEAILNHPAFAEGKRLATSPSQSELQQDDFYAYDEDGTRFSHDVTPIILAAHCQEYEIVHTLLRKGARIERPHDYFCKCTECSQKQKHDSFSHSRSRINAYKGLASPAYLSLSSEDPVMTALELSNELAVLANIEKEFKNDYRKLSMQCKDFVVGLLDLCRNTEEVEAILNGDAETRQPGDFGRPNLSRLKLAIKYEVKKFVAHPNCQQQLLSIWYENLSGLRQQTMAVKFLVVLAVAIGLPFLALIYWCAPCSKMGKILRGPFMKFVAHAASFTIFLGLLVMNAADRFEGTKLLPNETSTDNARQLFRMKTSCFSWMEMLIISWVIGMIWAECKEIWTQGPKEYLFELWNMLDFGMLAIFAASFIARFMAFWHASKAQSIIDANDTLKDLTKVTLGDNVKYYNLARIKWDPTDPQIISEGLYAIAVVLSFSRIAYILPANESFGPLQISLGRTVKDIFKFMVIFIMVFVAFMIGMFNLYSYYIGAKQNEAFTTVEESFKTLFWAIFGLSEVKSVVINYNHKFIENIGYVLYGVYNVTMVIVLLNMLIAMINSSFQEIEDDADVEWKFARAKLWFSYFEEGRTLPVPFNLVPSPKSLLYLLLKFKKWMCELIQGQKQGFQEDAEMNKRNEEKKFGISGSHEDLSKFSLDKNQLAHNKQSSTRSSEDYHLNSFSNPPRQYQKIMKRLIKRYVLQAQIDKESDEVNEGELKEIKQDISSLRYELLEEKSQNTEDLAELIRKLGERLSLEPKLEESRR
Nature of the data set: Inhibition of HA-tagged mouse TRPC6 expressed in HEK293 cells assessed as reduction in acetylcholine-induced membrane potential by FLIPR membrane potential dye based assay. It is filed as cell-based.

The species named for a further data set is Mus musculus. Nature of the data set: Selectivity ratio of mouse TRPC4 beta expressed in HEK293 cells co-expressing mu-opioid receptor to IC50 for mouse TRPC6 expressed in HEK293 cells. It is filed as cell-based.
A further data set has as its target Acetylcholinesterase (Homo sapiens, UniProt P22303). Kind of data set: Inhibition of human recombinant acetylcholinesterase expressed in HEK-293 cells using AMTch as substrate after 30 mins by spectrophotometric method.
In data set [3] the target is T3, Short transient receptor potential channel 4 (Homo sapiens, UniProt Q9UBN4).
T3 sequence (Q9UBN4 whole entry): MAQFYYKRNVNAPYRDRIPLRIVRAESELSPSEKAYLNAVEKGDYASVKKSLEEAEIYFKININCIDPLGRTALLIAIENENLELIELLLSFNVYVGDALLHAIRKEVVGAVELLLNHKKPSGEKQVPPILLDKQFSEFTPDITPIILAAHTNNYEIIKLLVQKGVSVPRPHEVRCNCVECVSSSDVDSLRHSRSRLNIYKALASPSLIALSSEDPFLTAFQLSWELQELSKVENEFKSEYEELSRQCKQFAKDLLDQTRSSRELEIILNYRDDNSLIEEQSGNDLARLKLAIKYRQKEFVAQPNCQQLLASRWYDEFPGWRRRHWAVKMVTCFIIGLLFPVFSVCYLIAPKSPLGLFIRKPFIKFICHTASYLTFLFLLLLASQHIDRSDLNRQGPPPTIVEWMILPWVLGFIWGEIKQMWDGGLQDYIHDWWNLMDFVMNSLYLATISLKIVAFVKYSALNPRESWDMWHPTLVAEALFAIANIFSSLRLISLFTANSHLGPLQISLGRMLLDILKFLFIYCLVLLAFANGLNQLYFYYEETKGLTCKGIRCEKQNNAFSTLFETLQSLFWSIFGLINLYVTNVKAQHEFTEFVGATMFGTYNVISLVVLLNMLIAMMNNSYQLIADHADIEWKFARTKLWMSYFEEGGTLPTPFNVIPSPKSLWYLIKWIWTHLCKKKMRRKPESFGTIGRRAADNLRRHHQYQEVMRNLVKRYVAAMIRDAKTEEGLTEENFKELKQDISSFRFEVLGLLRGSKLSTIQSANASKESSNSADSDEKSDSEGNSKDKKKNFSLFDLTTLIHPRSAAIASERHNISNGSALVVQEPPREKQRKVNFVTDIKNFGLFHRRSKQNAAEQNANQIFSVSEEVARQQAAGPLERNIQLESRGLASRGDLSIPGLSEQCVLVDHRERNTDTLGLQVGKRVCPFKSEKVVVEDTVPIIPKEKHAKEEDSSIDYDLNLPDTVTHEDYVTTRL
Nature of the data set: Inhibition of human TRPC4 expressed in HEK293 cells assessed as reduction in englerin A-induced calcium entry incubated for 30 mins by Fluo-4AM dye based fluorescence assay. It is filed as cell-based.

The target of another data set is TRPC1/TRPC5 (Homo sapiens, UniProt P48995+Q9UL62). Kind of data set: Inhibition of human TRPC5/human TRPC1 expressed in HEK293 cells assessed as reduction in englerin A-induced calcium entry incubated for 30 mins by Fluo-4AM dye based fluorescence assay. It is filed as cell-based.
For another data set, the target named is TRPC4/TRPC1 (Homo sapiens, UniProt P48995+Q9UBN4). Nature of the data set: Inhibition of human TRPC4/human TRPC1 expressed in HEK293 cells assessed as reduction in englerin A-induced calcium entry incubated for 30 mins by Fluo-4AM dye based fluorescence assay. It is filed as cell-based.
Data set [4] has as its target T3, Short transient receptor potential channel 4. Kind of data set: Inhibition of human TRPC4 expressed in HEK293 cells assessed as reduction in sphingosine-1-phosphate-induced current at -100 mV by patch clamp assay. It is filed as cell-based. (In general: Patch clamp records ionic current or voltage across a cell membrane.)
The target is the same in data set [5]. Kind of data set: Inhibition of human TRPC4 expressed in HEK293 cells assessed as reduction in sphingosine-1-phosphate-induced current at +100 mV by patch clamp assay. It is filed as cell-based.
A short description of data set [6]: Drug concentration in C57BL/6 mouse plasma at 1 mg/kg, iv after 2 hrs by liquid chromatography-tandem mass spectrometry. Conditions: in vivo. It is filed as ADME, organism-based.
A short description of data set [7]: Drug concentration in C57BL/6 mouse brain at 1 mg/kg, iv after 2 hrs by liquid chromatography-tandem mass spectrometry. The data set is classed as ADME, organism-based. Conditions: read-out: Drug uptake.
Data set [8] is described as follows: Protein binding in C57BL/6 mouse plasma assessed as unbound fraction by liquid chromatography-tandem mass spectrometry. The data set is classed as ADME, cell-free.
In data set [9] the target is T2, Short transient receptor potential channel 6. Kind of data set: Inhibition of mouse TRPC6 expressed in HEK293 cells co-expressing M5 receptor assessed as reduction in carbachol-induced membrane potential by FMP-2 dye based assay. The data set is classed as cell-based.
Data set [10] addresses T4, Short transient receptor potential channel 3 (Homo sapiens, UniProt Q13507).
T4 sequence (Q13507 whole entry): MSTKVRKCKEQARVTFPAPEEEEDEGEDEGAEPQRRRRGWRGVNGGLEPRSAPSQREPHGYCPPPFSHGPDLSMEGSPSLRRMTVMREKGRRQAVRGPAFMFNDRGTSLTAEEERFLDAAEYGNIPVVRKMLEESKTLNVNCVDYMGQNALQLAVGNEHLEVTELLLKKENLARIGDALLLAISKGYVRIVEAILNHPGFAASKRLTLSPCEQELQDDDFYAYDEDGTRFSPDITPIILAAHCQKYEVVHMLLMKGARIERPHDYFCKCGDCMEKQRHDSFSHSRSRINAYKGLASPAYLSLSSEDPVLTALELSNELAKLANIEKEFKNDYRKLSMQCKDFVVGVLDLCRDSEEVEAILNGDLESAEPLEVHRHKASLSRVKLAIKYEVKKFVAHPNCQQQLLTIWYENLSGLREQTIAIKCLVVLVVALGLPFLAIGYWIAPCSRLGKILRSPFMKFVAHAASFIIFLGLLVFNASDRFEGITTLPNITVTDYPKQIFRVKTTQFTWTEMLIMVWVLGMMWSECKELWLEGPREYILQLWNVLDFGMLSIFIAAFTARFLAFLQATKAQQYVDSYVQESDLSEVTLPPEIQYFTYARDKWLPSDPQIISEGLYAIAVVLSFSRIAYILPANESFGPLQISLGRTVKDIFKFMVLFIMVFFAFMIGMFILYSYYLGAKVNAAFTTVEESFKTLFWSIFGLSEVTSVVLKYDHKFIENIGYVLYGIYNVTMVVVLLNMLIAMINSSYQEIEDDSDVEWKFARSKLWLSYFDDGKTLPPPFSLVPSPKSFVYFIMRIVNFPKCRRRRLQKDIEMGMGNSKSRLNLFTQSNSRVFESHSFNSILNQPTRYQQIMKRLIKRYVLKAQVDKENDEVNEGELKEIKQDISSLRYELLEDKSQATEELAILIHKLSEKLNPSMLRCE
Nature of the data set: Inhibition of human TRPC3 expressed in HEK293 cells assessed as reduction in carbachol-induced membrane potential by FMP-2 dye based assay. The data set is classed as cell-based.

Data set [11] can be described thus: Inhibition of human TRPC1/mouse TRPC4 beta expressed in HEK293 cells co-expressing M2 receptor assessed as reduction in […] membrane potential by FMP-2 dye based assay. The data set is classed as cell-based.
The nature of data set [12]: Drug concentration in C57BL/6 mouse serum at 10 mg/kg, ip after 2 hrs by UPLC method. It is filed as ADME, organism-based. As to conditions: read-out: Drug uptake.
A short description of data set [13]: Drug concentration in C57BL/6 mouse brain at 10 mg/kg, ip after 2 hrs by UPLC method. It is filed as ADME, organism-based. Conditions: read-out: Drug uptake.
The nature of data set [14]: Drug concentration in C57BL/6 mouse cerebrospinal fluid at 10 mg/kg, ip after 2 hrs by UPLC method. It is filed as ADME, organism-based. As to conditions: read-out: Drug uptake.

Chain of TRPC1/TRPC5 (Q9UL62 whole entry): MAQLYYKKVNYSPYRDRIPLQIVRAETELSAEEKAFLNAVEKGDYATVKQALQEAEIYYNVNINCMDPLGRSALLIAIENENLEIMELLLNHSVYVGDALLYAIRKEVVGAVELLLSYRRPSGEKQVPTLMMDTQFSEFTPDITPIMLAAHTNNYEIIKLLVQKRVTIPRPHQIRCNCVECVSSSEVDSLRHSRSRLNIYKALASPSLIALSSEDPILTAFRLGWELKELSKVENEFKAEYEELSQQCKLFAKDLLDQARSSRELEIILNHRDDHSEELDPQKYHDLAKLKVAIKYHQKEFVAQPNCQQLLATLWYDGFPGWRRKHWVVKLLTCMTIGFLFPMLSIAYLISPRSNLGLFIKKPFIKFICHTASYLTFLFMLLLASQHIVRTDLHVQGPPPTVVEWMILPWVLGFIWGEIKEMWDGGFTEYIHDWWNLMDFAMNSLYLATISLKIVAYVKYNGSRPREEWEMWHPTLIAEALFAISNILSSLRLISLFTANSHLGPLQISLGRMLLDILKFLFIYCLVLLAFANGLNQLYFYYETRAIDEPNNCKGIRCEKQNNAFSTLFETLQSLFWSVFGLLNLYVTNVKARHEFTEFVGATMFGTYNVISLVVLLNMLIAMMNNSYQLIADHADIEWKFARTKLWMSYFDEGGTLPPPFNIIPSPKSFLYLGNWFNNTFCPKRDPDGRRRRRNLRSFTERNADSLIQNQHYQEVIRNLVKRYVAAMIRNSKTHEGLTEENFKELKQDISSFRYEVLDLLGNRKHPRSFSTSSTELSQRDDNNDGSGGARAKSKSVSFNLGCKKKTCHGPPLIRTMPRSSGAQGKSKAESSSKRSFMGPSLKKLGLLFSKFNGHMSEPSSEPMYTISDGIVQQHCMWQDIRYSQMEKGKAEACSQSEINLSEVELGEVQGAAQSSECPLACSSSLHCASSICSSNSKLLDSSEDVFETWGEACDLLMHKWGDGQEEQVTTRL
Chain of TRPC1/TRPC5 (P48995 whole entry): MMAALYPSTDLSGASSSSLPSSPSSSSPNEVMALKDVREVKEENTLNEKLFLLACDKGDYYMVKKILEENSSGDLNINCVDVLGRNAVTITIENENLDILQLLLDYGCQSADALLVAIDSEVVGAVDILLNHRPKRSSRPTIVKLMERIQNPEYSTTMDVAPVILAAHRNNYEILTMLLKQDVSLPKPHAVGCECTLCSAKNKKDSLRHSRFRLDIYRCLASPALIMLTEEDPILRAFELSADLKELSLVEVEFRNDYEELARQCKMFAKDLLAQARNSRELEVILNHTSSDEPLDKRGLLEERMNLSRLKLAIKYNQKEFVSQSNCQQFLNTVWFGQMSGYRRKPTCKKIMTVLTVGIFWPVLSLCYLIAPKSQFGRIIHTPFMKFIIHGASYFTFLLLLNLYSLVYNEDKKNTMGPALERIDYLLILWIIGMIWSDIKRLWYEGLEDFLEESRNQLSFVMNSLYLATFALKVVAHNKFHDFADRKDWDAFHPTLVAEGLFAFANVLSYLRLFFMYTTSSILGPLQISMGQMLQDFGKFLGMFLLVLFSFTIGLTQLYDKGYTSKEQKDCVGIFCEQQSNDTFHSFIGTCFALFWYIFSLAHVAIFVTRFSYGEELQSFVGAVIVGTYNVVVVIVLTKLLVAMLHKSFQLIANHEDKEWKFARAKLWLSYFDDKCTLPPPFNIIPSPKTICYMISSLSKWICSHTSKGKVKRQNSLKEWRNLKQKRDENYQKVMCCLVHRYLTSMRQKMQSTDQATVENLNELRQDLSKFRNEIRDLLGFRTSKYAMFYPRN
Chain of TRPC4/TRPC1 (P48995 whole entry, one chain of several): as the sequence (P48995 whole entry) above
Chain of Acetylcholinesterase (P22303 whole entry): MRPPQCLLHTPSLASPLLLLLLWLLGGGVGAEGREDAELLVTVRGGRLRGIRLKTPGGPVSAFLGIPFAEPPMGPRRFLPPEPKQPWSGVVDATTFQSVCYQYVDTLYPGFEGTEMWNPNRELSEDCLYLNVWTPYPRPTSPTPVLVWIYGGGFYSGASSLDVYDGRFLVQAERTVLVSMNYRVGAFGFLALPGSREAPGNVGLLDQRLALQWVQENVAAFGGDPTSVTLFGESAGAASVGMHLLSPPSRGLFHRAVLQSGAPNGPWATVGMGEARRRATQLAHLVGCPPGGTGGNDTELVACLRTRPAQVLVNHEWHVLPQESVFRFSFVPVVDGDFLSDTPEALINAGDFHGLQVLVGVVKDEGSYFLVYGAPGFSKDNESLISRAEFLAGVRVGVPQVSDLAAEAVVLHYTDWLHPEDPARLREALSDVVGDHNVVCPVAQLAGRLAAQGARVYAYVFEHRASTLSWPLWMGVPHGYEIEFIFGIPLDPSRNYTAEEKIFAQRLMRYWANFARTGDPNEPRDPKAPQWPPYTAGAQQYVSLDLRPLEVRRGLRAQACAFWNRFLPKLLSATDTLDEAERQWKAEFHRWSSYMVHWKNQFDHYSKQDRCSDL

As usually defined, the IC50 is the point on the concentration scale where inhibition reaches its midpoint. Consider `Cc1cc(N2CCCCC2)nc2ccccc12`, for which the IC50 in data set [1] is 960 nM; in data set [2], 17900 nM; on Acetylcholinesterase, 840 nM. The Ratio IC50 in the data set listed under Mus musculus stood at 19.
Turning to `Cn1c(=O)n(CCCO)c(=O)c2c1nc(Oc1cccc(OC(F)(F)F)c1)n2Cc1ccc(Cl)cc1` [ZERENCOTREP], the half-inhibitory concentration (IC50) came out at 0.34 nM in [3]; 0.19 nM at TRPC1/TRPC5; 0.033 nM on TRPC4/TRPC1; 0.012 nM in data set [4]; 0.03 nM in [5].
In turn, `Cn1c(=O)n(CCCO)c(=O)c2c1nc(Oc1cccc(Cl)c1)n2Cc1ccc(Cl)cc1` displayed a Cp in data set [6] of 299 nmol/kg. Besides, the concentration at 2 h in data set [7] was 339 nM. In data set [8], the Fu stood at 0.4%.
In the case of `CCCCNc1nc2ccccc2[nH]1`, the IC50 in data set [9] was 59600 nM; in data set [10], 48600 nM; in data set [11] it was 8300 nM. In addition, the concentration at 2 h worked out at 2260 ng/mL in [12], 1100 ng/g in data set [13] and 335 ng/mL in [14].
